Reference: ChEMBL document CHEMBL4265888, “Discovery of super soft-drug modulators of sphingosine-1-phosphate receptor 1” (Bioorg Med Chem Lett, 2018)

Columns and labels:
[1] = molecular target: Sphingosine 1-phosphate receptor 1 (Homo sapiens, UniProt P21453); assay: Inhibition of S1PR1 (unknown origin) expressed in CHOK1 cells after 90 mins by beta-arresting recuitment assay; type: functional, cell-based
[2] = Drug level in human plasma treated with (5-methyl-2-oxo-1,3-dioxol-4-yl)methyl 4-((3-(2-hydroxyphenyl)-4-oxo-2-(propylimino)thiazolidin-5-ylidene)methyl)benzoate at 37 degC; type: ADME, cell-free
[3] = Drug metabolism in human plasma assessed as formation of 4-((3(2-hydroxyphenyl)-4-oxo-2-(propylimino)thiazolidin-5-ylidene)methyl)benzoic acid at 37 degC; type: ADME, cell-free
Homo sapiens = assay: Antiinflammatory activity in psoriasis patient assessed as incident of 75% reduction in psoriasis area and severity index score at 40 mg, po dosed daily during phase 2 study for 28 weeks; type: functional; design: scale not given: the % may be the effect or the level left

Chain of Sphingosine 1-phosphate receptor 1 (P21453 whole entry): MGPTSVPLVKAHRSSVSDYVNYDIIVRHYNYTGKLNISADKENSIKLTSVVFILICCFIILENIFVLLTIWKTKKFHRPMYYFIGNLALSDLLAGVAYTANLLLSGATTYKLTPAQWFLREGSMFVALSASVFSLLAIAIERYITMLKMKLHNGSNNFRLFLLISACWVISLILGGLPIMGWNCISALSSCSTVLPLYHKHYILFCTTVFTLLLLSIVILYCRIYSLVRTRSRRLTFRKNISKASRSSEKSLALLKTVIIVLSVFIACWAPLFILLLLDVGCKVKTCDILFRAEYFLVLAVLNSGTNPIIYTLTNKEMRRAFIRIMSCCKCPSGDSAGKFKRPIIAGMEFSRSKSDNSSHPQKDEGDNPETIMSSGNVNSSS

SMILES	IC50 [1] [nM]	Drug metabolism [2]	Drug metabolism [3]	Activity (Homo sapiens) [%]
CCC/N=C1\S/C(=C\c2ccc(C(=O)O)cc2)C(=O)N1c1ccccc1O	> 1000	Metabolite_Notdetected		
CCC/N=C1\S/C(=C\c2ccc(C(=O)OCc3oc(=O)oc3C)cc2)C(=O)N1c1ccccc1O	> 1000		Metabolite_Detected	
CCC/N=C1\S/C(=C\c2ccc(OC[C@H](O)CO)c(Cl)c2)C(=O)N1c1ccccc1C [PONESIMOD]				77
